Laboratory results taken from patent publication US20240148821A1, “PHARMACEUTICAL USE OF CYCLIC PEPTIDE COMPOUND” (CHUGAI SEIYAKU KABUSHIKI KAISHA, priority 2021, published 2024).
Numbered stars: 1 amine (or outer) side, 2 acyl side, 3 side chain; on linkers, the order of the positions; unused ones are H or OH. Bridge positions count the residues as written; N and C are the ends. Square brackets hold non-standard residues; d marks the D form. Peptide text beside a SMILES is read from it. * marks the point of attachment. hPhe(3,5-F2-4-CF3) = N[C@@H](CCc1cc(F)c(C(F)(F)F)c(F)c1)C(=O)O; hPhe(3-Cl-4-CF3) = N[C@@H](CCc1ccc(C(F)(F)F)c(Cl)c1)C(=O)O; hPhe(3-F,4-CF3) = N[C@@H](CCc1ccc(C(F)(F)F)c(F)c1)C(=O)O; NEtPhe(4-CF3) = CCN[C@@H](Cc1ccc(C(F)(F)F)cc1)C(=O)O; Phe(4-CHF2) = N[C@@H](Cc1ccc(C(F)F)cc1)C(=O)O; 3Oxa8azabicyclo(3.2.1)octane = C1CC2COCC1N2*; NMePhe(4-Cl) = CN[C@@H](Cc1ccc(Cl)cc1)C(=O)O; NMePhe(4-Me) = CN[C@@H](Cc1ccc(C)cc1)C(=O)O; X3 = O=C(CN(C1CC2(C1)CC(F)(F)C2)[*:1])[*:2]; NMedβ3hAla = C[C@H](CC(=O)[*:2])N(C)[*:1]; NMeGly(cPent) = CN[C@H](C(=O)O)C1CCCC1; NMe3Pal = CN[C@@H](Cc1cccnc1)C(=O)O; NMeCha = CN[C@@H](CC1CCCCC1)C(=O)O; Ala(cPr) = N[C@@H](CC1CC1)C(=O)O; Hyp = O=C(O)[C@@H]1C[C@@H](O)CN1; NMeAhp(2) = CCCCC[C@H](NC)C(=O)O; NMeChg = CN[C@H](C(=O)O)C1CCCCC1; NMeF = CN[C@@H](Cc1ccccc1)C(=O)O; NMeD = CN[C@@H](CC(=O)O)C(=O)O; NMeL = CN[C@@H](CC(C)C)C(=O)O; NMeNva = CCC[C@H](NC)C(=O)O; NMeV = CN[C@H](C(=O)O)C(C)C; Azetidin(1-yl) = C1CN(*)C1; NMeS = CN[C@@H](CO)C(=O)O; Pip = O=C(O)[C@@H]1CCCCN1; NMeA = CN[C@@H](C)C(=O)O; NMeAib = CNC(C)(C)C(=O)O; Nle = CCCC[C@H](N)C(=O)O; Piperidide = C1CCN(*)CC1; Pra = C#CC[C@H](N)C(=O)O; Pyrrolidide = C1CCN(*)C1; dNMeA = CN[C@H](C)C(=O)O; Ac5c = NC1(C(=O)O)CCCC1; Aze = O=C(O)[C@@H]1CCN1; Sar = CNCC(=O)O; Propyl = CCC*

Experiments:
[1] = molecular target: protein-protein interaction between Kras and SOS1 (biotin-tagged human Kras loaded with GDP, His-tagged human SOS1) (Homo sapiens (Human), UniProt P01116, G12D); assay: Protein-protein interaction inhibition between Kras and SOS1 (KrasG12D-SOS PPI) using AlphaScreen; type: biochemical; settings: AlphaScreen; biotin-tagged human Kras loaded with GDP, His-tagged human SOS1; read-out: KRAS G12D-SOS PPI IC50;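 note: kras produced in E. coli, Ni-coupled donor beads and streptavidin acceptor beads, excitation 680 nm with emission detected at 520–620 nm via singlet oxygen transfer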
[2] = system: Human pancreatic cancer cell line AsPC-1 (G12D mutation Kras); assay: AsPC-1 cell growth inhibition (AsPC-1 CGI); type: cell-based; settings: read-out: AsPC-1 cell growth inhibition, 50% growth inhibitory concentration (IC50 value); 96 hours, CellTiter-Glo, values classified in ranges
Procedure: Test compounds were serially dilated with dimethyl sulfoxide, and 200 nL was then dispensed to a U-bottom 96-well plate using Labcyte Echo. […] The cell suspension was dispensed to a. plate containing a test compound at 100 μL per well and incubated at 37° C. in a 5% carbon dioxide gas incubator. 96 hours later, 80 μL of CellTiter-Glo (Promega) was added to each well and fluorescence was measured.

Compound | IC50 [1] [nM] | IC50 [2] [nM]
CCCC[C@@H]1NC(=O)C(C)(C)N(C)C(=O)[C@H](CC(C)C)NC(=O)[C@H](CCc2ccc(C(F)(F)F)c(F)c2)NC(=O)CN(C)C(=O)[C@H](Cc2ccc(Cl)cc2)N(C)C(=O)CN(C)C(=O)CN(C)C(=O)[C@H]([C@@H](C)CC)NC(=O)[C@H](CC(C)C)N(C)C(=O)C[C@@H](C)N(C)C1=O [Compound 83] (cyclo(I[Sar][Sar][NMePhe(4-Cl)][Sar][hPhe(3-F,4-CF3)]L[NMeAib][Nle][NMedβ3hAla][NMeL])) | 110 | > 500
CC[C@H](C)[C@@H]1NC(=O)[C@H](CC(C)C)N(C)C(=O)C[C@@H](C)N(C)C(=O)[C@H](C2CCCCC2)N(C)C(=O)C2(CCCC2)NC(=O)[C@H](Cc2cccnc2)N(C)C(=O)[C@H](CCc2ccc(C(F)(F)F)c(Cl)c2)NC(=O)CN(C)C(=O)[C@H](CC2CCCCC2)N(C)C(=O)CN(C)C(=O)CN(C)C1=O [Compound 1849] (cyclo([Ac5c][NMeChg][NMedβ3hAla][NMeL]I[Sar][Sar][NMeCha][Sar][hPhe(3-Cl-4-CF3)][NMe3Pal])) | 230 | > 500
CC[C@H](C)[C@@H]1NC(=O)[C@H](C)N(C)C(=O)C[C@@H](C(=O)N2CCCCC2)N(C)C(=O)[C@H](C(C)C)N(C)C(=O)C2(CCCC2)NC(=O)[C@@H]2CCCN2C(=O)[C@H](CCc2ccc(C(F)(F)F)c(Cl)c2)NC(=O)[C@@H](C)N(C)C(=O)[C@H](Cc2ccccc2)N(C)C(=O)[C@@H]2CCN2C(=O)[C@H](C)N(C)C1=O [Compound 1724] ([NMeA]I[NMeA][Aze][NMeF][dNMeA][hPhe(3-Cl-4-CF3)]P[Ac5c][NMeV][NMeD]-Piperidide; lactam N-11) | 16 | > 500
CC[C@H](C)[C@@H]1NC(=O)[C@H](CC(C)C)N(C)C(=O)C[C@@H](C(=O)N(C)C)N(C)C(=O)[C@H](C2CCCC2)N(C)C(=O)C2(CCCC2)NC(=O)[C@@H]2CCCN2C(=O)[C@H](CCc2ccc(C(F)(F)F)c(Cl)c2)NC(=O)CN(C)C(=O)[C@H](CC2CCCCC2)N(C)C(=O)[C@@H]2CCN2C(=O)[C@H](C)N(C)C1=O [Compound 1777] ([NMeL]I[NMeA][Aze][NMeCha][Sar][hPhe(3-Cl-4-CF3)]P[Ac5c][NMeGly(cPent)][NMeD]-NMe2; lactam N-11) | 0.63 | ≤ 20
CCCOC[C@H]1C(=O)N(C)CC(=O)N[C@@H](CCc2ccc(C(F)(F)F)c(Cl)c2)C(=O)N2CCC[C@H]2C(=O)NC2(CCCC2)C(=O)N(C)[C@@H](C2CCCC2)C(=O)N(C)[C@H](C(=O)N2C3CCC2COC3)CC(=O)N(C)[C@@H](CC(C)C)C(=O)N[C@@H]([C@@H](C)CC)C(=O)N(C)[C@@H](C)C(=O)N2CC[C@H]2C(=O)N1C [Compound 176] ([NMeL]I[NMeA][Aze][NMeS](Propyl)[Sar][hPhe(3-Cl-4-CF3)]P[Ac5c][NMeGly(cPent)][NMeD]-{3Oxa8azabicyclo(3.2.1)octane}; lactam N-11) | 1.4 | ≤ 20
CCO[C@@H]1C[C@H]2C(=O)NC3(CCCC3)C(=O)N(C)[C@@H](C3CCCC3)C(=O)N(C)[C@H](C)CC(=O)N(C)[C@@H](CC(C)C)C(=O)N[C@@H]([C@@H](C)CC)C(=O)N(C)[C@@H](C)C(=O)N3CC[C@H]3C(=O)N(CC)[C@@H](Cc3ccc(C(F)(F)F)cc3)C(=O)N(C)CC(=O)N[C@@H](CCc3cc(F)c(C(F)(F)F)c(F)c3)C(=O)N2C1 [Compound 466] (cyclo([Ac5c][NMeGly(cPent)][NMedβ3hAla][NMeL]I[NMeA][Aze][NEtPhe(4-CF3)][Sar][hPhe(3,5-F2-4-CF3)][Hyp](Et))) | 3.1 | ≤ 20
CCC[C@H]1C(=O)N[C@@H]([C@@H](C)CC)C(=O)N(C)CC(=O)N(C)CC(=O)N(C)[C@@H](Cc2ccc(C)cc2)C(=O)N(C)CC(=O)N[C@@H](CCc2ccc(C(F)(F)F)c(Cl)c2)C(=O)N2C[C@H](OCC)C[C@H]2C(=O)NC2(CCCC2)C(=O)N(C)[C@@H](C2CCCCC2)C(=O)N(C)[C@H](C(=O)N2CCCC2)CC(=O)N1C [Compound 1285] ([NMeNva]I[Sar][Sar][NMePhe(4-Me)][Sar][hPhe(3-Cl-4-CF3)][Hyp](Et)[Ac5c][NMeChg][NMeD]-Pyrrolidide; lactam N-11) | 0.53 | ≤ 20
CC[C@H](C)[C@@H]1NC(=O)[C@H](CC(C)C)N(C)C(=O)C[C@@H](C(=O)N2CCCCC2)N(C)C(=O)[C@H](C2CCCCC2)N(C)C(=O)C2(CCCC2)NC(=O)CN(C2CC3(C2)CC(F)(F)C3)C(=O)[C@H](CCc2ccc(C(F)(F)F)c(Cl)c2)NC(=O)CN(C)C(=O)[C@H](CC2CCCCC2)N(C)C(=O)CN(C)C(=O)CN(C)C1=O [Compound 2035, (11S,17S,26S,29S,33S,36S)-11-[2-[3-chloro-4-(trifluoromethyl)phenyl]ethyl]-36-cyclohexyl-17-(cyclohexylmethyl)-9-(2,2-difluorospiro[3.3]heptan-6-yl)-29-isobutyl-15,18,21,24,30,34,37-heptamethyl-26-[(1S)-1-methylpropyl]-33-(piperidine,-1-carbonyl)-6,9,12,15,18,21,24,27,30,34,37-undecazaspiro[4.33]octatriacontane-7,10,13,16,19,22,25,28,31,35,38-undecone] ([NMeL]I[Sar][Sar][NMeCha][Sar][hPhe(3-Cl-4-CF3)][X3][Ac5c][NMeChg][NMeD]-Piperidide; lactam N-11) | 24 | > 500
CCCOC[C@H]1C(=O)N(C)CC(=O)N[C@@H](CCc2ccc(C(F)(F)F)c(Cl)c2)C(=O)N2CCC[C@H]2C(=O)NC2(CCCC2)C(=O)N(C)[C@@H](C2CCCC2)C(=O)N(C)[C@H](C(=O)N2CCCCC2)CC(=O)N(C)[C@@H](CC(C)C)C(=O)N[C@@H]([C@@H](C)CC)C(=O)N(C)[C@@H](C)C(=O)N2CC[C@H]2C(=O)N1C [Compound 415] ([NMeL]I[NMeA][Aze][NMeS](Propyl)[Sar][hPhe(3-Cl-4-CF3)]P[Ac5c][NMeGly(cPent)][NMeD]-Piperidide; lactam N-11) | 1.5 | ≤ 20
CC(C)C[C@H]1C(=O)N[C@@H](CC2CC2)C(=O)N(C)[C@@H](C)C(=O)N2CC[C@H]2C(=O)N(C)[C@@H](CC2CCCCC2)C(=O)N(C)CC(=O)N[C@@H](CCc2ccc(C(F)(F)F)c(Cl)c2)C(=O)N2CCC[C@H]2C(=O)NC2(CCCC2)C(=O)N(C)[C@@H](C(C)C)C(=O)N(C)[C@H](C(=O)N2CCCCC2)CC(=O)N1C [Compound 358] ([NMeL][Ala(cPr)][NMeA][Aze][NMeCha][Sar][hPhe(3-Cl-4-CF3)]P[Ac5c][NMeV][NMeD]-Piperidide; lactam N-11) | 33 | > 500
C#CC[C@@H]1NC(=O)[C@H](CC(C)C)N(C)C(=O)C[C@@H](C(=O)N2CCCCC2)N(C)C(=O)[C@H](C(C)C)N(C)C(=O)C2(CCCC2)NC(=O)[C@@H]2CCCN2C(=O)[C@H](CCc2ccc(C(F)(F)F)c(Cl)c2)NC(=O)CN(C)C(=O)[C@H](CC2CCCCC2)N(C)C(=O)[C@@H]2CCN2C(=O)[C@H](C)N(C)C1=O [Compound 946] ([NMeL][Pra][NMeA][Aze][NMeCha][Sar][hPhe(3-Cl-4-CF3)]P[Ac5c][NMeV][NMeD]-Piperidide; lactam N-11) | 7.5 | > 500
CCCC[C@@H]1NC(=O)[C@H](CCc2ccc(C(F)(F)F)c(Cl)c2)NC(=O)CN(C)C(=O)[C@H](Cc2ccc(Cl)cc2)N(C)C(=O)[C@@H]2CCN2C(=O)[C@H](C)N(C)C(=O)[C@H]([C@@H](C)CC)NC(=O)[C@@H]2CCCCN2C(=O)C[C@@H](C(=O)N2CCCCC2)N(C)C(=O)[C@H](CC(C)C)NC(=O)C(C)(C)N(C)C1=O [Compound 103] ([Pip]I[NMeA][Aze][NMePhe(4-Cl)][Sar][hPhe(3-Cl-4-CF3)][Nle][NMeAib]L[NMeD]-Piperidide; lactam N-11) | 22 | > 500
CCCCC[C@H]1C(=O)N[C@@H]([C@@H](C)CC)C(=O)N(C)[C@@H](C)C(=O)N2CC[C@H]2C(=O)N(C)[C@@H](CC2CCCCC2)C(=O)N(C)CC(=O)N[C@@H](CCc2ccc(C(F)(F)F)c(Cl)c2)C(=O)N2CCC[C@H]2C(=O)NC2(CCCC2)C(=O)N(C)[C@@H](C2CCCC2)C(=O)N(C)[C@H](C(=O)N2CCC2)CC(=O)N1C [Compound 144] ([NMeAhp(2)]I[NMeA][Aze][NMeCha][Sar][hPhe(3-Cl-4-CF3)]P[Ac5c][NMeGly(cPent)][NMeD]-{Azetidin(1-yl)}; lactam N-11) | 1.1 | ≤ 20
CC[C@H](C)[C@@H]1NC(=O)[C@H](CC(C)C)N(C)C(=O)C[C@@H](C(=O)N2CCCCC2)N(C)C(=O)[C@H](C(C)C)N(C)C(=O)C2(CCCC2)NC(=O)[C@@H]2CCCN2C(=O)[C@H](CCc2ccc(C(F)(F)F)c(Cl)c2)NC(=O)CN(C)C(=O)[C@H](CC2CCCCC2)N(C)C(=O)[C@@H]2CCN2C(=O)[C@@H]2CCN2C1=O [Compound 318] ([NMeL]I[Aze][Aze][NMeCha][Sar][hPhe(3-Cl-4-CF3)]P[Ac5c][NMeV][NMeD]-Piperidide; lactam N-11) | 19 | > 500
CC[C@H](C)[C@@H]1NC(=O)[C@H](CC(C)C)N(C)C(=O)C[C@@H](C)N(C)C(=O)[C@H](CC(C)C)NC(=O)C(C)(C)N(C)C(=O)[C@H](Cc2ccc(C(F)F)cc2)NC(=O)[C@H](CCc2ccc(C(F)(F)F)c(F)c2)NC(=O)CN(C)C(=O)[C@H](CC2CCCCC2)N(C)C(=O)CN(C)C(=O)CN(C)C1=O [Compound 858] (cyclo(I[Sar][Sar][NMeCha][Sar][hPhe(3-F,4-CF3)][Phe(4-CHF2)][NMeAib]L[NMedβ3hAla][NMeL])) | 330 | > 500
CC[C@H](C)[C@@H]1NC(=O)[C@H](CC(C)C)N(C)C(=O)C[C@@H](C(=O)N(C)C)N(C)C(=O)[C@H](C2CCCC2)N(C)C(=O)C2(CCCC2)NC(=O)[C@@H]2CCCN2C(=O)[C@H](CCc2cc(F)c(C(F)(F)F)c(F)c2)NC(=O)CN(C)C(=O)[C@H](Cc2ccc(C)cc2)N(C)C(=O)[C@@H]2CCN2C(=O)[C@H](C)N(C)C1=O [Compound 965] ([NMeL]I[NMeA][Aze][NMePhe(4-Me)][Sar][hPhe(3,5-F2-4-CF3)]P[Ac5c][NMeGly(cPent)][NMeD]-NMe2; lactam N-11) | 0.86 | ≤ 20
